Laboratory results taken from patent US20200247815A1, “PYRAZOLYL-CONTAINING TRICYCLIC DERIVATIVE, PREPARATION METHOD THEREFOR AND USE THEREOF” (Jiangsu Hansoh Pharmaceutical Group Co., Ltd., priority 2017, published 2020).

Legend:
ERK-1 kinase = target: T1, ERK-1 kinase (Homo sapiens, UniProt P27361); assay: Inhibition of ERK-1 kinase activity (LANCE Ultra TR-FRET); assay type: biochemical; conditions: ERK1 enzyme 0.4 nM, ATP 38.15 μM
T1 construct: purchased Invitrogen PV3311
Description: (§1) The object of this test example is to determine the inhibition effect of the compound on ERK-1 kinase activity. In vitro ERK-1 kinase analysis was carried out by using LANCE Ultra (Perkin Elmer) method. The reaction (reaction system 10 μL) was conducted by adding 2.5 μL of test compound/DMSO (final 4%, V/V, diluted to 10 concentrations (400 nM to 0.02 nM) using a 1:3 dilution scheme), 5 μL of a mixed solution of ERK1 enzyme (Invitrogen, # PV3311, final concentration: 0.4 nM) and substrate Ulight-MBP peptide (Perkin Elmer, # TRF0109-M, final concentration: 0.5 μM) formulated with a kinase buffer (50 mM Hepes pH 7.4, 10 mM MgCl2, 1 mM EGTA, 0.01% Triton X-100, 2 mM DTT) and 2.5 μL of ATP solution (Invitrogen, # PV3227, final concentration: 38.15 μM) formulated with the same buffer successively to a 384-well plate (Perkin Elmer OPTIPLATE™) and mixing well. The reaction mixture was incubated at room temperature for 60 minutes. The reaction was stopped by adding 1× LANCE Detection buffer (PerkinElmer # CR97-100) diluted with ultra-pure water, mM EDTA (Invitrogen #15575038) and 1 nM Eu-anti-p-MBP (PerkinElmer # TRF0201-M) antibody in 10 μL/well. The plate was incubated at room temperature for 60 minutes. Excitation reading was performed on Synergy H1 Hybird Reader, H1MFD (Biotek) with an excitation wavelength of 320 nm. TR-FRET rate was calculated by dividing the acceptor emission signal (signal value at 665 nM) by the Eu donor emission signal (signal value at 615 nM). The inhibition TR-FRET rate of the well treated by the compound was calculated relative to the Max signal (DMSO control) and Min signal (no enzyme added) control wells on the plate {% inhibition rate=100−[(test compound−Min average)]/(Max average−Min average)×100}. The 10 concentrations of the compound after 4-fold dilution of the reaction system were 100 nM to 0.005 nM. Abs_IC50 value was calculated by using GraphPad prism fits percentage inhibition rate and ten-point concentration data in a 4-parameter non-linear logic formula.

ERK-2 kinase = target: T2, ERK-2 kinase (Homo sapiens, UniProt P28482); assay: Inhibition of ERK-2 kinase activity (LANCE Ultra TR-FRET); assay type: biochemical; conditions: ERK-2 enzyme 0.08 nM, ATP 38.15 μM
T2 construct: purchased Invitrogen PV3313
T2 sequence (P28482 whole entry): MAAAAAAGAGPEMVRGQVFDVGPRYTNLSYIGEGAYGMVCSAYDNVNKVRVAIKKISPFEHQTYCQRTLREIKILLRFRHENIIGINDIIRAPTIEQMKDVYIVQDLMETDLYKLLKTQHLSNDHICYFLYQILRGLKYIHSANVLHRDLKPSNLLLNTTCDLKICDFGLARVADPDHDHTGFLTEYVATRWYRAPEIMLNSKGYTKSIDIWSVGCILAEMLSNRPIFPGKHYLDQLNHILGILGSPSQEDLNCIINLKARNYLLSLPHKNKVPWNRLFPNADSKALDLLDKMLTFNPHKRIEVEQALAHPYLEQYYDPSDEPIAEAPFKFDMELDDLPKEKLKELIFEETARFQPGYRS
Description: as §1, with “ERK-2” for “ERK-1”, “ERK-2” for “ERK1”, “PV3313,” for “PV3311,”, “0.08” for “0.4”, “EGTA” for “EGTA,”, “IX” for “1×”

T1 sequence (P27361 whole entry): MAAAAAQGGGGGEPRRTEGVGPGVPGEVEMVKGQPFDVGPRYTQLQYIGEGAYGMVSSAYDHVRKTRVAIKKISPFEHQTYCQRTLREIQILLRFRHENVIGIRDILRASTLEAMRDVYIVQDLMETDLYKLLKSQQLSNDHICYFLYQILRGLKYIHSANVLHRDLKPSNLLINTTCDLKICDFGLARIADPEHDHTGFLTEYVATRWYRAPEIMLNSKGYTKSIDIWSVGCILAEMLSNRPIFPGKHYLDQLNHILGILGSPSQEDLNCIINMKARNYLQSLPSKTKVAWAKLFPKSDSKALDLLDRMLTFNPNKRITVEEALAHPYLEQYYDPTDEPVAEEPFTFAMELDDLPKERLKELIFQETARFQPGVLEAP

| IC50 (ERK-1 kinase) [nM] | IC50 (ERK-2 kinase) [nM] | Structure (SMILES) |
| --- | --- | --- |
| 0.75 | 0.3 | C[C@@H](NC(=O)c1nc2cc3c(-c4cc[n+]([O-])cc4)n[nH]c3cc2[nH]1)c1ccccc1 [Example 97, (R)-4-(6-((1-phenylethyl)carbamoyl)-1,7-dihydroimidazo[4,5-f]indazol-3-yl)pyridine-N-oxide] |
| 1.31 | 0.87 | O=C(N[C@H](CNCC(F)F)c1ccccc1)c1nc2cc3c(-c4ccncc4)n[nH]c3cc2[nH]1 [Example 89, (S)—N-(2-((2,2-difluoroethyl)amino)-1-phenylethyl)-3-(pyridin-4-yl)-1,7-dihydroimidazo[4,5-f]indazole-6-carboxamide] |
| 2.24 | 5.85 | C[C@@H](NC(=O)c1nc2cc3c(C4=CCC(=O)CC4)n[nH]c3cc2[nH]1)c1ccccc1 [Example 94, (R)-3-(4-oxocyclohex-1-en-1-yl)-N-(1-phenylethyl)-1,7-dihydroimidazo[4,5-f]indazole-6-carboxamide] |
| 2.5 | 0.24 | O=C(CNC(=O)c1nc2cc3c(-c4ccncc4)n[nH]c3cc2[nH]1)c1ccccc1 [Example 72, N-(2-oxo-2-phenylethyl)-3-(pyridin-4-yl)-1,7-dihydroimidazo[4,5-f]indazole-6-carboxamide] |
| 2.18 | 0.85 | CN(NC(=O)c1nc2cc3c(-c4ccncc4)n[nH]c3cc2[nH]1)c1ccccc1 [Example 77, N′-methyl-N′-phenyl-3-(pyridin-4-yl)-1,7-dihydroimidazo[4,5-f]indazole-6-carbohydrazide] |
| 2.4 | 1.33 | COc1cc(-c2n[nH]c3cc4[nH]c(C(=O)N[C@H](C)c5ccccc5)nc4cc23)ccn1 [Example 86, (R)-3-(2-methoxypyridin-4-yl)-N-(1-phenylethyl)-1,7-dihydroimidazo[4,5-f]indazole-6-carboxamide] |
| 2.61 | 0.93 | COc1ccc(-c2n[nH]c3cc4[nH]c(C(=O)N[C@H](C)c5ccccc5)nc4cc23)cn1 [Example 84, (R)-3-(6-methoxypyridin-3-yl)-N-(1-phenylethyl)-1,7-dihydroimidazo[4,5-f]indazole-6-carboxamide] |
| 0.65 | 0.21 | COC(CNC(=O)c1nc2cc3c(-c4ccncc4)n[nH]c3cc2[nH]1)c1ccccc1 (stereo not shown) [Example 78, N-(2-methoxy-2-phenylethyl)-3-(pyridin-4-yl)-1,7-dihydroimidazo[4,5-f]indazole-6-carboxamide] |
| 3.43 | 3.08 | CC(C)Oc1ccc(-c2n[nH]c3cc4[nH]c(C(=O)N[C@H](C)c5ccccc5)nc4cc23)cn1 [Example 85, (R)-3-(6-isopropoxypyridin-3-yl)-N-(1-phenylethyl)-1,7-dihydroimidazo[4,5-f]indazole-6-carboxamide] |
| 2.27 | 0.99 | C[C@@H](NC(=O)c1nc2cc3c(-c4ccncc4)n[nH]c3cc2[nH]1)c1cccc(C2CC2)c1 [Example 88, (R)—N-(1-(3-cyclopropylphenyl)ethyl)-3-(pyridin-4-yl)-1,7-dihydroimidazo[4,5-f]indazole-6-carboxamide] |

More lines, now with the values behind:

| Structure (SMILES) | IC50 (ERK-1 kinase) [nM] | IC50 (ERK-2 kinase) [nM] |
| --- | --- | --- |
| O=C(NC(CCO)c1ccccc1)c1nc2cc3c(-c4ccncc4)n[nH]c3cc2[nH]1 (stereo not shown) [Example 71, N-(3-hydroxy-1-phenylpropyl)-3-(pyridin-4-yl)-1,7-dihydroimidazo[4,5-f]indazole-6-carboxamide] | 2.18 | 0.8 |
| CC(NC(=O)c1nc2cc3c(-c4ccncc4)n[nH]c3cc2[nH]1)c1ccccc1 (stereo not shown) [Example 11, N-(1-phenylethyl)-3-(pyridin-4-yl)-1,7-dihydroimidazo[4,5-f]indazole-6-carboxamide] | 0.64 | 0.29 |
| N#C[C@@H](NC(=O)c1nc2cc3c(-c4ccncc4)n[nH]c3cc2[nH]1)c1ccccc1 [Example 34, (S)—N-(cyano(phenyl)methyl)-3-(pyridin-4-yl)-1,7-dihydroimidazo[4,5-f]indazole-6-carboxamide] | 0.79 | 0.34 |
| C[C@@H](NC(=O)c1nc2cc3c(-c4ccncc4)n[nH]c3cc2[nH]1)c1ccc(F)c(Cl)c1 [Example 63, (R)—N-(1-(3-chloro-4-fluorophenyl)ethyl)-3-(pyridin-4-yl)-1,7-dihydroimidazo[4,5-f]indazole-6-carboxamide] | 2.93 | 2.88 |
| O=C(N[C@H](CO)c1ccccc1)c1nc2cc3c(-c4ccncc4)n[nH]c3cc2[nH]1 [Example 20, (S)—N-(2-hydroxy-1-phenylethyl)-3-(pyridin-4-yl)-1,7-dihydroimidazo[4,5-f]indazole-6-carboxamide] | 0.22 | 0.06 |
| Cc1cccc(C(C)NC(=O)c2nc3cc4c(-c5ccncc5)n[nH]c4cc3[nH]2)n1 (stereo not shown) [Example 44, N-(1-(6-methylpyridin-2-yl)ethyl)-3-(pyridin-4-yl)-1,7-dihydroimidazo[4,5-f]indazole-6-carboxamide] | 0.95 | 0.66 |
| CC[C@@H](NC(=O)c1nc2cc3c(-c4ccncc4)n[nH]c3cc2[nH]1)c1ccccc1 [Example 17, (R)—N-(1-phenylpropyl)-3-(pyridin-4-yl)-1,7-dihydroimidazo[4,5-f]indazole-6-carboxamide] | 2.34 | 1.15 |
| Cc1cccc([C@@H](C)NC(=O)c2nc3cc4c(-c5ccncc5)n[nH]c4cc3[nH]2)n1 [Example 47, (R)—N-(1-(6-methylpyridin-2-yl)ethyl)-3-(pyridin-4-yl)-1,7-dihydroimidazo[4,5-f]indazole-6-carboxamide] | 0.49 | 0.17 |
| C[C@@H](NC(=O)c1nc2cc3c(-c4ccncc4)n[nH]c3c(Cl)c2[nH]1)c1ccccc1 [Example 46, (R)-8-chloro-N-(1-phenylethyl)-3-(pyridin-4-yl)-1,7-dihydroimidazo[4,5-f]indazole-6-carboxamide] | 3.3 | 1.7 |
| C[C@@H](NC(=O)c1nc2cc3c(-c4ccncc4)n[nH]c3cc2[nH]1)c1ccc([N+](=O)[O-])cc1 [Example 14, (R)—N-(1-(4-nitrophenyl)ethyl)-3-(pyridin-4-yl)-1,7-dihydroimidazo[4,5-f]indazole-6-carboxamide] | 9.48 | 5.07 |
| Cc1ccc([C@@H](C)NC(=O)c2nc3cc4c(-c5ccncc5)n[nH]c4cc3[nH]2)cc1 [Example 6, (R)-3-(pyridin-4-yl)-N-(1-(p-tolyl)ethyl)-1,7-dihydroimidazo[4,5-f]indazole-6-carboxamide] | 2.09 | 0.84 |
| C[C@@H](NC(=O)c1nc2cc3c(-c4ccnc(F)c4)n[nH]c3cc2[nH]1)c1ccccc1 [Example 37, (R)-3-(2-fluoropyridin-4-yl)-N-(1-phenylethyl)-1,7-dihydroimidazo[4,5-f]indazole-6-carboxamide] | 0.52 | 0.18 |
| C[C@@H](NC(=O)c1nc2cc3c(-c4ccncc4)n[nH]c3cc2[nH]1)c1ccccn1 [Example 9, (R)—N-(1-(pyridin-2-yl)ethyl)-3-(pyridin-4-yl)-1,7-dihydroimidazo[4,5-f]indazole-6-carboxamide] | 8.6 | 3.13 |
